Consider 21 compounds from patent publication US8580762B2, “Substituted purine and 7-deazapurine compounds” (Epizyme, Inc., priority 2010, dated 2013).

A word on the IC50: it is the point on the concentration scale where inhibition reaches its midpoint.

Bounds are passed on as bounds.

Sequence of DOT1L(1-416) (Q8TEK3 1-416): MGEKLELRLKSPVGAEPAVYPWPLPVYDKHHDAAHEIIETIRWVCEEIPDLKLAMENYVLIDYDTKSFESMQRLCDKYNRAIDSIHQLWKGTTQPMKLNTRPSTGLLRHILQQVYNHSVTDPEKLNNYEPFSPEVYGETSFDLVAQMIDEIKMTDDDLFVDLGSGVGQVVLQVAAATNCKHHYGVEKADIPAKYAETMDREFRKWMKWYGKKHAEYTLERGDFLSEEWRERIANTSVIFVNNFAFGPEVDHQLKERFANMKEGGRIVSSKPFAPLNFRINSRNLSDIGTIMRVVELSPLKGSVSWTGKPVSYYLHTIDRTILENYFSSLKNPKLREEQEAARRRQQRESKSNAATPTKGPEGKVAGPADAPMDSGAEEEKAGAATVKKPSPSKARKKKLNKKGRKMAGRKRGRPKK

One experiment has as its target DOT1L(1-416) (Homo sapiens, UniProt Q8TEK3). Description: Determination of IC50: DOT1L(1-416) methyltransferase assay, 3H-SAM, oligonucleosome substrate, Flashplate. Type of experiment: biochemical. The note with it: class symbols; read-out: DOT1L IC50. The procedure, abridged:
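Compounds in 10-point 3-fold DMSO dilutions were tested in reactions started with substrate mix of 200 nM [3H]-SAM, 600 nM unlabeled SAM and 20 nM oligonucleosome. Reactions ran 120 min at room temperature and were quenched with 100 μM SAM. Labeled substrate was captured on streptavidin Flashplates and counted by scintillation to give IC50.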
As for `CC(C)N(C[C@H]1O[C@@H](n2cnc3c(N)ncnc32)[C@H](O)[C@@H]1O)C1CC(CCc2nc3cc(C4CCC4)ccc3[nH]2)C1` (stereo partly drawn) [Compound 67, (2R,3R,4S,5R)-2-(6-amino-9H-purin-9-yl)-5-[({3-[2-(5-cyclobutyl-1H-1,3-benzodiazol-2-yl)ethyl]cyclobutyl}(propan-2-yl)amino)methyl]oxolane-3,4-diol], the concentration for half-maximal inhibition (IC50) was below 100 nM. As for `CN(C[C@H]1O[C@@H](n2cnc3c(N)ncnc32)[C@H](O)[C@@H]1O)[C@H]1C[C@@H](CCc2nc3cc(C(C)(C)C)ccc3[nH]2)C1` [Compound 71, (2R,3R,4S,512)-2-(6-amino-9H-purin-9-yl)-5-((((1r,3S)-3-(2-(5-(tert-butyl)-1H-benzo[d]imidazol-2-yl)ethyl)cyclobutyl)(methyl)amino)methyl)tetrahydrofuran-3,4-diol], the IC50 is below 100 nM. For the compound `CN(C[C@H]1O[C@@H](n2cnc3c(N)ncnc32)[C@H](O)[C@@H]1O)[C@H]1C[C@H](CCc2nc3cc(C(C)(C)C)ccc3[nH]2)C1` [Compound 72, (2R,3R,4S,5R)-2-(6-amino-9H-purin-9-yl)-5-((((1s,3R)-3-(2-(5-(tert-butyl)-1H-benzo[d]imidazol-2-yl)ethyl)cyclobutyl)(methyl)amino)methyl)tetrahydrofuran-3,4-diol], the IC50 is below 100 nM.

`CCN(C[C@H]1O[C@@H](n2cnc3c(N)ncnc32)[C@H](O)[C@@H]1O)[C@H]1C[C@@H](CCc2nc3cc(C(C)(C)C)ccc3[nH]2)C1` [Compound 73, (2R,3R,4S,5R)-2-(6-amino-9H-purin-9-yl)-5-((((1r,35)-3-(2-(5-(tert-butyl)-1H-benzo[d]imidazol-2-yl)ethyl)cyclobutyl)(ethyl)amino)methyl)tetrahydrofuran-3,4-diol]: the IC50 is below 100 nM.

With `CCN(C[C@H]1O[C@@H](n2cnc3c(N)ncnc32)[C@H](O)[C@@H]1O)[C@H]1C[C@H](CCc2nc3cc(C(C)(C)C)ccc3[nH]2)C1` [Compound 74, (2R,3R,4S,5R)-2-(6-amino-9H-purin-9-yl)-5-((((1s,3R)-3-(2-(5-(tert-butyl)-1H-benzo[d]imidazol-2-yl)ethyl)cyclobutyl)(ethyl)amino)methyl)tetrahydrofuran-3,4-diol], the IC50 is below 100 nM. As to `CC(C)N(C[C@H]1O[C@@H](n2ccc3c(N)ncnc32)[C@H](O)[C@@H]1O)[C@H]1C[C@H](CCc2nc3cc(C(C)(C)C)ccc3[nH]2)C1` [Compound 75, (2R,3R,4S,5R)-2-(4-amino-7H-pyrrolo[2,3-d]pyrimidin-7-yl)-5-((((1s,3R)-3-(2-(5-(tert-butyl)-1H-benzo[d]imidazol-2-yl)ethyl)cyclobutyl)(isopropyl)amino)methyl)tetrahydrofuran-3,4-diol], the IC50 was below 100 nM.

With `CC(C)N(C[C@H]1O[C@@H](n2ccc3c(N)ncnc32)[C@H](O)[C@@H]1O)[C@H]1C[C@H](CCc2nc3cc(OC(F)(F)F)ccc3[nH]2)C1` [Compound 76, (2R,3R,4S,5R)-2-(4-amino-7H-pyrrolo[2,3-d]pyrimidin-7-yl)-5-((isopropyl((1s,3R)-3-(2-(5-(trifluoromethoxy)-1H-benzo[d]imidazol-2-yl)ethyl)cyclobutyl)amino)methyl)tetrahydrofuran-3,4-diol], the 50% inhibitory concentration (IC50) is below 100 nM. For the compound `CC(C)(C)c1ccc2[nH]c(CC[C@H]3C[C@H](N(C[C@H]4O[C@@H](n5ccc6c(N)ncnc65)[C@H](O)[C@@H]4O)CC(F)(F)F)C3)nc2c1` [Compound 77, (2R,3R,4S,5R)-2-(4-amino-7H-pyrrolo[2,3-d]pyrimidin-7-yl)-5-((((1s,3R)-3-(2-(5-(tert-butyl)-1H-benzo[d]imidazol-2-yl)ethyl)cyclobutyl)(2,2,2-trifluoroethyl)amino)methyl)tetrahydrofuran-3,4-diol], the IC50 lay in the range of 100 to 1000 nM. Same read-out and setting: the same measure for `CC(C)(C)c1ccc2[nH]c(CC[C@H]3C[C@@H](N(C[C@H]4O[C@@H](n5ccc6c(N)ncnc65)[C@H](O)[C@@H]4O)CC(F)(F)F)C3)nc2c1` [Compound 78, (2R,3R,4S,5R)-2-(4-amino-7H-pyrrolo[2,3-d]pyrimidin-7-yl)-5-((((1r,3S)-3-(2-(5-(tert-butyl)-1H-benzo[d]imidazol-2-yl)ethyl)cyclobutyl)(2,2,2-trifluoroethyl)amino)methyl)tetrahydrofuran-3,4-diol]: 1000 to 10000 nM; for `CCN(C[C@H]1O[C@@H](n2cnc3c(N)ncnc32)[C@H](O)[C@@H]1O)C1CC(CCc2nc3cc(C(C)(C)C)ccc3[nH]2)C1` (stereo partly drawn) [Compound 79, (2R,3R,4S,5R)-2-(6-amino-9H-purin-9-yl)-5-(((3-(2-(5-(tert-butyl)-1H-benzo[d]imidazol-2-yl)ethyl)cyclobutyl) (ethyl)amino)methyl) tetrahydrofuran-3,4-diol]: below 100 nM. With `CC(C)(C)c1ccc2[nH]c(CC[C@H]3C[C@H](N(C[C@H]4O[C@@H](n5cnc6c(N)ncnc65)[C@H](O)[C@@H]4O)CC(F)(F)F)C3)nc2c1` [Compound 80, (2R,3R,4S,5R)-2-(6-amino-9H-purin-9-yl)-5-((((1s,3R)-3-(2-(5-(tert-butyl)-1H-benzo[d]imidazol-2-yl)ethyl)cyclobutyl) (2,2,2-trifluoroethyl)amino)methyl)tetrahydrofuran-3,4-diol], the 50% inhibitory concentration (IC50) is 100 to 1000 nM. Turning to `CN(C[C@@H]1C[C@@H](O)[C@H](n2ccc3c(N)ncnc32)C1)[C@H]1C[C@@H](CCc2nc3cc(Cl)c(C(F)(F)F)cc3[nH]2)C1` [Compound 81, (1R,2R,4S)-2-(4-amino-7H-pyrrolo[2,3-d]pyrimidin-7-yl)-4-((((1r,3R)-3-(2-(5-chloro-6-(trifluoromethyl)-1H-benzo[d]imidazol-2-yl)ethyl)cyclobutyl) (methyl)amino)methyl) cyclopentanol], the half-maximal inhibitory concentration (IC50) is 100 to 1000 nM. For the compound `CC(C)(C)c1ccc2[nH]c(CCC3CC(N(C[C@H]4O[C@@H](n5cnc6c(N)ncnc65)[C@H](O)[C@@H]4O)CC(F)(F)F)C3)nc2c1` (stereo partly drawn) [Compound 82, (2R,3R,45,5R)-2-(6-amino-9H-purin-9-yl)-5-(((3-(2-(5-(tert-butyl)-1H-benzo[d]imidazol-2-yl)ethyl)cyclobutyl) (2,2,2-trifluoroethyl)amino)methyl)tetrahydrofuran-3,4-diol], the IC50 fell in the range of 100 to 1000 nM. Turning to `CC(C)N(C[C@@H]1C[C@@H](O)[C@H](n2ccc3c(N)ncnc32)C1)C1CC(CCc2nc3cc(Cl)c(C(F)(F)F)cc3[nH]2)C1` (stereo partly drawn) [Compound 84, (1R,2R,4S)-2-(4-amino-7H-pyrrolo[2,3-d]pyrimidin-7-yl)-4-(((3-(2-(5-chloro-6-(trifluoromethyl)-1H-benzo[d]imidazol-2-yl)ethyl)cyclobutyl) (isopropyl)amino)methyl)cyclopentanol], the half-inhibitory concentration (IC50) was in the range of 1000 to 10000 nM. `CN(C[C@@H]1C[C@@H](O)[C@H](n2ccc3c(N)ncnc32)C1)[C@H]1C[C@H](CCc2nc3cc(Cl)c(C(F)(F)F)cc3[nH]2)C1` [Compound 85, (1R,2R,4S)-2-(4-amino-7H-pyrrolo[2,3-d]pyrimidin-7-yl)-4-((((1s,3S)-3-(2-(5-chloro-6-(trifluoromethyl)-1H-benzo[d]imidazol-2-yl)ethyl)cyclobutyl) (methyl)amino)methyl) cyclopentanol]: the IC50 is 10000 to 50000 nM. Take `CN(C[C@H]1O[C@@H](n2ccc3c(N)ncnc32)[C@H](O)[C@@H]1O)[C@H]1C[C@@H](CCc2nc3cc(C(C)(C)C)ccc3[nH]2)C1` [Compound 86, (2R,3R,4S,5R)-2-(4-amino-7H-pyrrolo[2,3-d]pyrimidin-7-yl)-5-((((1r,3S)-3-(2-(5-(tert-butyl)-1H-benzo[d]imidazol-2-yl)ethyl)cyclobutyl) (methyl)amino)methyl) tetrahydrofuran-3,4-diol]: the concentration for half-maximal inhibition (IC50) is below 100 nM. In the case of `CC(C)N(C[C@H]1O[C@@H](n2ccc3c(N)ncnc32)[C@H](O)[C@@H]1O)[C@H]1C[C@@H](CCc2nc3cc(OC(F)(F)F)ccc3[nH]2)C1` [Compound 87, (2R,3R,4S,5R)-2-(4-amino-7H-pyrrolo[2,3-d]pyrimidin-7-yl)-5-((isopropyl((1r,3S)-3-(2-(5-(trifluoromethoxy)-1H-benzo[d]imidazol-2-yl)ethyl)cyclobutyl)amino)methyl)tetrahydrofuran-3,4-diol], the IC50 is below 100 nM. Regarding `CCN(C[C@H]1O[C@@H](n2ccc3c(N)ncnc32)[C@H](O)[C@@H]1O)[C@H]1C[C@H](CCc2nc3cc(C(C)(C)C)ccc3[nH]2)C1` [Compound 88, (2R,3R,4S,5R)-2-(4-amino-7H-pyrrolo[2,3-d]pyrimidin-7-yl)-5-((((1s,3R)-3-(2-(5-(tert-butyl)-1H-benzo[d]imidazol-2-yl)ethyl)cyclobutyl) (ethyl)amino)methyl) tetrahydrofuran-3,4-diol], the IC50 is below 100 nM. Take `CCN(C[C@H]1O[C@@H](n2ccc3c(N)ncnc32)[C@H](O)[C@@H]1O)[C@H]1C[C@@H](CCc2nc3cc(C(C)(C)C)ccc3[nH]2)C1` [Compound 89, (2R,3R,4S,5R)-2-(4-amino-7H-pyrrolo[2,3-d]pyrimidin-7-yl)-5-((((1r,3S)-3-(2-(5-(tert-butyl)-1H-benzo[d]imidazol-2-yl)ethyl)cyclobutyl) (ethyl)amino)methyl) tetrahydrofuran-3,4-diol]: the IC50 was below 100 nM. `CC(C)N(C[C@H]1O[C@@H](n2ccc3c(N)ncnc32)[C@H](O)[C@@H]1O)[C@H]1C[C@@H](CCc2nc3cc(C(C)(C)C)ccc3[nH]2)C1` [Compound 90, (2R,3R,4S,5R)-2-(4-amino-7H-pyrrolo[2,3-d]pyrimidin-7-yl)-5-((((1r,3S)-3-(2-(5-(tert-butyl)-1H-benzo[d]imidazol-2-yl)ethyl)cyclobutyl)(isopropyl)amino)methyl)tetrahydrofuran-3,4-diol]: the half-inhibitory concentration (IC50) is below 100 nM. On to `CN(C[C@H]1O[C@@H](n2ccc3c(N)ncnc32)[C@H](O)[C@@H]1O)[C@H]1C[C@H](CCc2nc3cc(C(C)(C)C)ccc3[nH]2)C1` [Compound 92, (2R,3R,4S,5R)-2-(4-amino-7H-pyrrolo[2,3-d]pyrimidin-7-yl)-5-((((1s,3R)-3-(2-(5-(tert-butyl)-1H-benzo[d]imidazol-2-yl)ethyl)cyclobutyl) (methyl)amino)methyl) tetrahydrofuran-3,4-diol], for which the IC50 was below 100 nM.

Staying with this experiment, now noted: read-out: DOT1L IC50.
Consider `CC(C)N(C[C@H]1O[C@@H](n2ccc3c(N)ncnc32)[C@H](O)[C@@H]1O)[C@H]1C[C@H](CCc2nc3cc(C(C)(C)C)ccc3[nH]2)C1` [Compound 75, (2R,3R,4S,5R)-2-(4-amino-7H-pyrrolo[2,3-d]pyrimidin-7-yl)-5-((((1s,3R)-3-(2-(5-(tert-butyl)-1H-benzo[d]imidazol-2-yl)ethyl)cyclobutyl)(isopropyl)amino)methyl)tetrahydrofuran-3,4-diol], for which the 50% inhibitory concentration (IC50) was 0.59 nM. For `CN(C[C@H]1O[C@@H](n2ccc3c(N)ncnc32)[C@H](O)[C@@H]1O)[C@H]1C[C@@H](CCc2nc3cc(C(C)(C)C)ccc3[nH]2)C1` [Compound 86, (2R,3R,4S,5R)-2-(4-amino-7H-pyrrolo[2,3-d]pyrimidin-7-yl)-5-((((1r,3S)-3-(2-(5-(tert-butyl)-1H-benzo[d]imidazol-2-yl)ethyl)cyclobutyl) (methyl)amino)methyl) tetrahydrofuran-3,4-diol], the IC50 turned out to be 0.62 nM. The same measure, in the same setting: for `CC(C)N(C[C@H]1O[C@@H](n2ccc3c(N)ncnc32)[C@H](O)[C@@H]1O)[C@H]1C[C@@H](CCc2nc3cc(OC(F)(F)F)ccc3[nH]2)C1` [Compound 87, (2R,3R,4S,5R)-2-(4-amino-7H-pyrrolo[2,3-d]pyrimidin-7-yl)-5-((isopropyl((1r,3S)-3-(2-(5-(trifluoromethoxy)-1H-benzo[d]imidazol-2-yl)ethyl)cyclobutyl)amino)methyl)tetrahydrofuran-3,4-diol] the value was 0.8 nM.
